Measured values reported in patent US20220296595A1, “CDK INHIBITORS” (QILU REGOR THERAPEUTICS INC., priority 2019, published 2022).
Where two headings read alike, the source gives them in different places.

Experiments:
CDK4/CyclinD1 = molecular target: T1, CDK4/CyclinD1 (Homo sapiens, UniProt P11802); test: Assay for inhibition of CDK4/CyclinD1 (Caliper microfluidic kinase assay); format: biochemical
T1 construct: purchased Thermofisher PR8064A
Description: The CDK4 enzyme assay for IC50 determination was performed as follows. Microfluidic kinase detection technology (Caliper) was used to monitor the phosphorylation of peptide substrate by CDK4/CyclinD1. The total reaction volume was 15 μL containing buffer A (100 mM HEPES (pH 7.5), 0.1% BSA, 0.01% Triton X-100, 1 mM DTT, 10 mM MgCl2, 10 μM Sodium Orthovanadate, 10 μM Beta-Glycerophosphate), 200 μM ATP, 1 nM CDK4/CyclinD1 (Thermofisher, PR8064A), 1 μM FL-34 (5-FAM-[…]), and the test compound at appropriate dilutions in DMSO. All components were added to the 384-well plate (Corning, 4514), and incubated at Room Temperature for 3 hours. The reaction was terminated by addition of 15 μL Stop Buffer (180 mM HEPES (pH 7.5), 20 mM EDTA, Coating-3 reagent (PerkinElmer, 760050)). The plate was then loaded on Caliper EZ Reader (EZ Reader II, PerkinElmer, HD-4HYSG2772), and the reaction mixtures including substrate and product were sipped into the microfluidic chip for separation and detection. The IC50 values of the test compound were determined by fitting the inhibition curves by 4 parameter sigmoidal dose-response model using the Xlfit5/GraphPad Prism 5 software.

CDK2/CyclinE1 = molecular target: T2, CDK2/CyclinE1 (Homo sapiens, UniProt P24941); test: Assay for inhibition of CDK2/CyclinE1 (Caliper microfluidic kinase assay); format: biochemical; details: read-out: CDK2 IC50
T2 construct: purchased SignalChem C29-18G
Description: The CDK2 enzyme assay for IC50 determination was performed as follows. Microfluidic kinase detection technology (Caliper) was used to monitor the phosphorylation of peptide substrate by CDK2/CyclinE1. The total reaction volume was 15 μL containing buffer A (100 mM HEPES (pH 7.5), 0.1% BSA, 0.01% Triton X-100, 1 mM DTT, 10 mM MgCl2, 10 μM Sodium Orthovanadate, 10 μM Beta-Glycerophosphate), 100 μM ATP, 5 nM CDK2/CyclinE1 (SignalChem, C29-18G), 5 μM FL-18 (5-FAM-QSPKKG-NH2), and the test compound at appropriate dilutions in DMSO. All components were added to the 384-well plate (Corning, 4514), and incubate at Room Temperature for 3 hours. The reaction was terminated by addition of 15 μL Stop Buffer (180 mM HEPES (pH 7.5), 20 mM EDTA, Coating-3 reagent (PerkinElmer, 760050)). The plate was loaded on Caliper EZ Reader (EZ Reader II, PerkinElmer, HD-4HYSG2772), and the reaction mixtures including substrate and product were sipped into the microfluidic chip for separation and detection. The IC50 values of the test compound were determined by fitting the inhibition curves by 4 parameter sigmoidal dose-response model using the Xlfit5/GraphPad Prism 5 software.

T47D breast cancer cells = test: Anti-proliferation assay in T47D cell (Cyquant, day 6); format: cell-based, human; details: anti-proliferation, T47D cells, read-out: T47D IC50
Text: T47D is a human breast cancer cell line commonly used in biomedical research involving the hormonal expression of cancer cells. T47D cells are distinct from other human breast cancer cells in that their progesterone receptors (PR) are not regulated by estradiol, a hormone that is abundant within the cells themselves. T47D cells have been employed in studies of the effects of progesterone on breast cancer and the corresponding transcriptional regulation caused by introduced drugs. The cells have been noted to be extremely resistant to estrogens and antiestrogens.
T47D breast cancer cells from American Type Culture Collection (ATCC, HTB-133) were plated at 3000 cells/well in 96-well plates, and were incubated in RPMI 1640 medium (Gibco, 31800105) with 10% Fetal Bovine Serum (FBS, Biowest, FB-1058) at 37° C., 5% CO2. After overnight incubation, baseline values were measured of the samples from one plate using Cyquant reagent (Invitrogen, C35011) following manufacturer's recommendations. Cells were incubated with the detection reagent for 1 hour at 37° C., and then the fluorescence was measured with excitation at 485 nm and emission at 535 nm using Spectra Max M5 (Molecular Devices, HD-4HYSG3196). Other plates were dosed with compounds at a ten-point dose concentration from 10 μM to 0.51 nM in a 3-fold dilution scheme. On day 6 after compound addition, Cyquant reagent was added and the fluorescence was measured using Spectra Max M5. The IC50 values of the test compound's anti-proliferation activity were determined from the baseline subtracted viability readout curve using Xlfit5/GraphPad Prism 5 software.

T1 sequence (P11802 whole entry): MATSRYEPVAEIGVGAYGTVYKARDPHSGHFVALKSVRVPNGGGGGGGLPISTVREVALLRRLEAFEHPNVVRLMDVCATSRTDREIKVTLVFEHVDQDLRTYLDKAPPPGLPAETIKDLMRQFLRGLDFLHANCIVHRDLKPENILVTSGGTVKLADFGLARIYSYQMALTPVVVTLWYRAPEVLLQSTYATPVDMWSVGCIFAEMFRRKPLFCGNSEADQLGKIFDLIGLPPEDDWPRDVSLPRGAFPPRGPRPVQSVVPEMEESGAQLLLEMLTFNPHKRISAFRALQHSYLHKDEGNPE
T1 sequence (P24385 whole entry partner): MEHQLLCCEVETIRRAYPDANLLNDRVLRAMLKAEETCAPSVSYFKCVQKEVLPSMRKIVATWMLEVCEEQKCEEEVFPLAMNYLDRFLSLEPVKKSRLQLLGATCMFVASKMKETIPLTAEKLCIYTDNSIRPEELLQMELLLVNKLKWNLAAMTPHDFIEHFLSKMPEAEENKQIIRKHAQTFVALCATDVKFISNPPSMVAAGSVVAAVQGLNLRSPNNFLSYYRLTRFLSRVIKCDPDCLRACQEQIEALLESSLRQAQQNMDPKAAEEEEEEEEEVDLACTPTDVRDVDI

Compound: CNC1CCCN(c2ccc(Nc3nccc(-c4cc(F)c5c(c4)C(C)(C)CO5)n3)cc2)C1=O (stereo not shown) [compound 265]
- IC50 (CDK4/CyclinD1; CDK4/CyclinD1, 200 μM ATP): < 10 nM
- IC50 (CDK2/CyclinE1; CDK2/CyclinE1, 100 μM ATP): 10 to 100 nM
- IC50 (T47D breast cancer cells; Homo sapiens, T47D): < 100 nM

Compound: Cc1nc2c(F)nc(-c3ccnc(Nc4ccc(N5CCN(C(C)C)CC5)cn4)n3)cc2n1C(C)C [compound 269]
- IC50 (CDK4/CyclinD1; CDK4/CyclinD1, 200 μM ATP): < 10 nM
- IC50 (CDK2/CyclinE1; CDK2/CyclinE1, 100 μM ATP): > 1000 nM
- IC50 (T47D breast cancer cells; Homo sapiens, T47D): < 100 nM

Compound: CNC1CCCN(c2ccc(Nc3nccc(-c4cc5c(ncn5C(C)C)c(F)n4)n3)nc2)C1=O (stereo not shown) [compound 284]
- IC50 (CDK4/CyclinD1; CDK4/CyclinD1, 200 μM ATP): < 10 nM
- IC50 (CDK2/CyclinE1; CDK2/CyclinE1, 100 μM ATP): > 1000 nM
- IC50 (T47D breast cancer cells; Homo sapiens, T47D): < 100 nM

Compound: CC(C)c1cnn2ccc(-c3ccnc(Nc4ccc(N5C(=O)C6CC5CN6)cn4)n3)cc12 (stereo not shown) [compound 210]
- IC50 (CDK4/CyclinD1; CDK4/CyclinD1, 200 μM ATP): < 10 nM
- IC50 (CDK2/CyclinE1; CDK2/CyclinE1, 100 μM ATP): 10 to 100 nM
- IC50 (T47D breast cancer cells; Homo sapiens, T47D): > 1000 nM

Compound: CC(C)N1CCN(c2ccc(Nc3ncc(F)c(N4CCc5ncn(C(C)C)c5C4)n3)nc2)CC1 [compound 250]
- IC50 (CDK4/CyclinD1; CDK4/CyclinD1, 200 μM ATP): < 10 nM
- IC50 (CDK2/CyclinE1; CDK2/CyclinE1, 100 μM ATP): 100 to 1000 nM
- IC50 (T47D breast cancer cells; Homo sapiens, T47D): < 100 nM

Compound: CNC1CCCN(c2ccc(Nc3ncc(C)c(-c4cc5c(ncn5C(C)C)c(F)n4)n3)cc2)C1=O (stereo not shown) [compound 298]
- IC50 (CDK4/CyclinD1; CDK4/CyclinD1, 200 μM ATP): < 10 nM
- IC50 (CDK2/CyclinE1; CDK2/CyclinE1, 100 μM ATP): 100 to 1000 nM
- IC50 (T47D breast cancer cells; Homo sapiens, T47D): < 100 nM

Compound: CC(C)c1cnn2ccc(-c3nc(Nc4ccc(N5CCN(CCF)CCC5=O)cn4)ncc3F)cc12 [compound 54]
- IC50 (CDK4/CyclinD1; CDK4/CyclinD1, 200 μM ATP): < 10 nM
- IC50 (CDK2/CyclinE1; CDK2/CyclinE1, 100 μM ATP): 10 to 100 nM
- IC50 (T47D breast cancer cells; Homo sapiens, T47D): 100 to 500 nM

Compound: CC(C)n1cnc2c(F)nc(-c3ccnc(Nc4ccc(N5CCN(C(C)(C)C)CC5)cn4)n3)cc21 [compound 308]
- IC50 (CDK4/CyclinD1; CDK4/CyclinD1, 200 μM ATP): < 10 nM
- IC50 (CDK2/CyclinE1; CDK2/CyclinE1, 100 μM ATP): 100 to 1000 nM
- IC50 (T47D breast cancer cells; Homo sapiens, T47D): < 100 nM

Compound: O=C1COCCN1c1ccc(Nc2ncc(F)c(-c3ccn4ncc(C5CCCC5)c4c3)n2)nc1 [compound 12]
- IC50 (CDK4/CyclinD1; CDK4/CyclinD1, 200 μM ATP): 10 to 100 nM
- IC50 (CDK2/CyclinE1; CDK2/CyclinE1, 100 μM ATP): 100 to 1000 nM
- IC50 (T47D breast cancer cells; Homo sapiens, T47D): 500 to 1000 nM

Compound: CNC1CCCN(c2ccc(Nc3nccc(-c4ccn5ncc(C(C)C)c5c4)n3)cn2)C1=O (stereo not shown) [compound 185]
- IC50 (CDK4/CyclinD1; CDK4/CyclinD1, 200 μM ATP): < 10 nM
- IC50 (CDK2/CyclinE1; CDK2/CyclinE1, 100 μM ATP): 10 to 100 nM
- IC50 (T47D breast cancer cells; Homo sapiens, T47D): < 100 nM

Compound: CNC1CCCN(c2ccc(Nc3ncc(Cl)c(-c4cc5c(ncn5C(C)C)c(F)n4)n3)cc2)C1=O (stereo not shown) [compound 299]
- IC50 (CDK4/CyclinD1; CDK4/CyclinD1, 200 μM ATP): < 10 nM
- IC50 (CDK2/CyclinE1; CDK2/CyclinE1, 100 μM ATP): 100 to 1000 nM
- IC50 (T47D breast cancer cells; Homo sapiens, T47D): < 100 nM

Compound: Cc1nc2c(F)nc(-c3ccnc(Nc4ccc(N5CCCC(N(C)C)C5=O)cn4)n3)cc2n1C(C)C (single isomer, unassigned) [Synthetic Example 303, 3-(dimethylamino)-1-[6-[[4-(4-fluoro-1-isopropyl-2-methyl-imidazo[4,5-c]pyridin-6-yl)pyrimidin-2-yl]amino]-3-pyridyl]piperidin-2-one]
- IC50 (CDK4/CyclinD1; CDK4/CyclinD1, 200 μM ATP): < 10 nM
- IC50 (CDK2/CyclinE1; CDK2/CyclinE1, 100 μM ATP): > 1000 nM
- IC50 (T47D breast cancer cells): < 100 nM

Compound: CC(C)n1cnc2c1CN(c1nc(Nc3ccc(N4CCCC(N(C)C)C4=O)cc3)ncc1F)CC2 (stereo not shown) [compound 249]
- IC50 (CDK4/CyclinD1; CDK4/CyclinD1, 200 μM ATP): < 10 nM
- IC50 (CDK2/CyclinE1; CDK2/CyclinE1, 100 μM ATP): 10 to 100 nM
- IC50 (T47D breast cancer cells; Homo sapiens, T47D): < 100 nM

Compound: CCN1CCC(Cn2ccc(Nc3nccc(-c4cc5c(ncn5C(C)C)c(OC)n4)n3)n2)CC1 [compound 135]
- IC50 (CDK4/CyclinD1; CDK4/CyclinD1, 200 μM ATP): 10 to 100 nM
- IC50 (CDK2/CyclinE1; CDK2/CyclinE1, 100 μM ATP): > 1000 nM
- IC50 (T47D breast cancer cells; Homo sapiens, T47D): 100 to 500 nM

Compound: COc1nc(-c2ccnc(Nc3ccc(N4CCCC(N(C)C)C4=O)cc3)n2)cc2c1ncn2C(C)C (stereo not shown) [compound 311]
- IC50 (CDK4/CyclinD1; CDK4/CyclinD1): < 10 nM
- IC50 (CDK2/CyclinE1; CDK2/CyclinE1): 100 to 1000 nM
- IC50 (T47D breast cancer cells; Homo sapiens, T47D): < 100 nM

Compound: CC1(N)CCN(c2ccc(Nc3nccc(-c4ccn5ncc(C(C)(C)C)c5c4)n3)nc2)C(=O)C1 (stereo not shown) [compound 219]
- IC50 (CDK4/CyclinD1; CDK4/CyclinD1, 200 μM ATP): < 10 nM
- IC50 (CDK2/CyclinE1; CDK2/CyclinE1, 100 μM ATP): < 10 nM
- IC50 (T47D breast cancer cells; Homo sapiens, T47D): < 100 nM

Compound: CC(C)c1cnn2ccc(-c3ccnc(Nc4ccc(C(=O)N5CCC(NC6CC6)C5)cc4)n3)cc12 (stereo not shown) [compound 21]
- IC50 (CDK4/CyclinD1; CDK4/CyclinD1, 200 μM ATP): < 10 nM
- IC50 (CDK2/CyclinE1; CDK2/CyclinE1, 100 μM ATP): < 10 nM
- IC50 (T47D breast cancer cells): < 100 nM

Compound: CC(C)c1cnn2ccc(-c3ccnc(Nc4ccc(N5CCC(NCCF)CC5=O)cc4)n3)cc12 (stereo not shown) [compound 233]
- IC50 (CDK4/CyclinD1; CDK4/CyclinD1, 200 μM ATP): < 10 nM
- IC50 (CDK2/CyclinE1; CDK2/CyclinE1, 100 μM ATP): < 10 nM

Compound: COc1nc(-c2ccnc(Nc3ccn(CC4CCNCC4)n3)n2)cc2c1ncn2C(C)C [compound 108]
- IC50 (CDK4/CyclinD1; CDK4/CyclinD1, 200 μM ATP): 10 to 100 nM
- IC50 (CDK2/CyclinE1; CDK2/CyclinE1, 100 μM ATP): > 1000 nM
